How the values were obtained:
[1] = tested on: IL-6 production in human foreskin fibroblast cells; assay: Inhibition of IL-6 Production in Fibroblasts (Cell Assay for Transrepression); type: cell-based; details: IL-1 stimulated human foreskin fibroblasts; for EC50: read-out: agonistic activity (EC50) by inhibiting IL-6 production in Fibroblasts; for Emax: read-out: efficacy by inhibiting IL-6 production in Fibroblasts
Method: 2. Inhibition of IL-6 Production in Fibroblasts (Cell Assay for Transrepression)
Human foreskin fibroblast cells produce IL-6 in response to stimulation by proinflammatory cytokine IL-1.
Human foreskin fibroblast cells (ATCC Cat. No. CRL-2429) are plated on 96 well plates at 5,000 cells per well the day before use, in Iscove's Modified Dulbecco's Media (GibcoBRL Life Technologies Cat. No. 12440-053) supplemented with 10% charcoal filtered FBS (Clonetech Cat. No. SH30068) and Gentamycin (GibcoBRL Life Technologies Cat. No. 15710-064). On the next day, media in the wells is replaced with fresh media. Cells are treated with IL-1 (rhIL-1α, R&D Systems Cat. No. 200-LA) to a final concentration of 1 ng/mL, and with test compounds to final concentrations of 10^−5 M to 10^−8 M, in a total volume of 200 μL per well. Samples are done in duplicates. […] Positive control wells receive IL-1 only and represent maximum (or 100%) amount of IL-6 production. Plates are incubated at 37° C. overnight (15 to 18 hours), and supernatants are harvested at the end of incubation. IL-6 levels in the supernatants are determined by the ELISA kits for IL-6 (MedSystems Diagnostics GmbH, Vienna, Austria, Cat. No. BMS213TEN) according to manufacture's instructions. The extent of inhibition of IL-6 by test compounds is expressed in percentage relative to positive controls. IC50 values of test compounds are derived by non-linear curve fitting.

| melting point [°C] | SMILES | EC50 [1] [µM] | Emax [1] [%] |
| --- | --- | --- | --- |
| 137 to 141 | OC(c1cnc2c(cnn2-c2ccccc2)c1)(c1c[nH]c2ncccc12)C(F)(F)F (stereo not drawn) |  |  |
|  | OCC(O)Cn1cc(C(O)(c2ccn3c(-c4ccc(F)cc4)ncc3c2)C(F)(F)F)c2ccccc21 (stereo not drawn) [3-(3-{2,2,2-Trifluoro-1-[3-(4-fluorophenyl)imidazo[1,5-a]pyridin-7-yl]-1-hydroxyethyl}indol-1-yl)propane-1,2-diol] | ≤ 1 | > 50 |
|  | OCC(O)Cn1cc(C(O)(c2ccc3c(cnn3-c3ccc(F)cc3)c2)C(F)(F)F)c2ccc(Br)cc21 (stereo not drawn) [3-(6-Bromo-3-{2,2,2-trifluoro-1-[1-(4-fluorophenyl)-1H-indazol-5-yl]-1-hydroxyethyl}indol-1-yl)propane-1,2-diol] | ≤ 1 | > 50 |
|  | COc1nccc2c(C(O)(c3ccc4c(cnn4-c4ccc(F)cc4)c3)C(F)(F)F)cn(CC(O)CO)c12 (stereo not drawn) [3-(7-Methoxy-3-{2,2,2-trifluoro-1-[1-(4-fluorophenyl)-1H-indazol-5-yl]-1-hydroxyethyl}pyrrolo[2,3-c]pyridin-1-yl)propane-1,2-diol] | ≤ 1 | > 50 |
|  | Cc1cc(C(O)(c2ccc3c(cnn3-c3ccc(F)cc3)c2)C(F)(F)F)c[nH]c1=O (stereo not drawn) [3-Methyl-5-{2,2,2-trifluoro-1-[1-(4-fluorophenyl)-1H-indazol-5-yl]-1-hydroxyethyl}-1H-pyridin-2-one] | ≤ 1 | > 50 |
|  | OCC(O)CCn1cc(C(O)(c2ccc3c(cnn3-c3ccc(F)cc3)c2)C(F)(F)F)c2ccccc21 (stereo not drawn) [4-(3-{2,2,2-Trifluoro-1-[1-(4-fluorophenyl)-1H-indazol-5-yl]-1-hydroxyethyl}indol-1-yl)-butane-1,2-diol] | ≤ 1 | > 50 |
|  | C=CCn1cc(C(O)(c2ccc3c(cnn3-c3ccc(F)cc3)c2)C(F)(F)F)c2ncn(C)c(=O)c21 (stereo not drawn) [5-Allyl-3-methyl-7-{2,2,2-trifluoro-1-[1-(4-fluorophenyl)-1H-indazol-5-yl]-1-hydroxyethyl}-3,5-dihydropyrrolo[3,2-d]pyrimidin-4-one] | ≤ 1 | > 50 |
|  | CC(C)NC(=O)n1ncc2cc(C(O)(c3cn(C)c4ccccc34)C(F)(F)F)ccc21 (stereo not drawn) [5-[2,2,2-Trifluoro-1-hydroxy-1-(1-methyl-1H-indol-3-yl)ethyl]indazole-1-carboxylic acid isopropylamide] | ≤ 1 | > 50 |
|  | Cc1cc(C(O)(c2ccc3c(cnn3-c3ccc(F)cc3)c2)C(F)(F)F)cn(CC(N)=O)c1=O (stereo not drawn) [(3-Methyl-2-oxo-5-{2,2,2-trifluoro-1-[1-(4-fluorophenyl)-1H-indazol-5-yl]-1-hydroxyethyl}-2H-pyridin-1-yl)acetamide] | ≤ 1 | > 50 |
|  | CCOC(=O)Cn1cc(C(O)(c2ccc3c(cnn3-c3ccc(F)cc3)c2)C(F)(F)F)c2ccccc21 (stereo not drawn) [(3-{2,2,2-Trifluoro-1-[1-(4-fluorophenyl)-1H-indazol-5-yl]-1-hydroxyethyl}indol-1-yl)acetic acid ethyl ester] | ≤ 1 | > 50 |
|  | O=C(O)Cn1cc(C(O)(c2ccc3c(cnn3-c3ccc(F)cc3)c2)C(F)(F)F)c2ccccc21 (stereo not drawn) [(3-{2,2,2-Trifluoro-1-[1-(4-fluorophenyl)-1H-indazol-5-yl]-1-hydroxyethyl}indol-1-yl)acetic acid] | ≤ 1 | > 50 |
|  | N#CCn1cc(C(O)(c2ccc3c(cnn3-c3ccc(F)cc3)c2)C(F)(F)F)c2cccnc21 (stereo not drawn) [(3-{2,2,2-Trifluoro-1-[1-(4-fluorophenyl)-1H-indazol-5-yl]-1-hydroxyethyl}pyrrolo[2,3-b]pyridin-1-yl)acetonitrile] | ≤ 1 | > 50 |
|  | C[C@@H](O)Cn1cc(C(O)(c2ccc3c(cnn3-c3ccc(F)cc3)c2)C(F)(F)F)c2ccccc21 (stereo partly drawn) [(R)-1-(3-{2,2,2-Trifluoro-1-[1-(4-fluorophenyl)-1H-indazol-5-yl]-1-hydroxyethyl}indol-1-yl)propan-2-ol] | ≤ 1 | > 50 |
|  | C[C@H](O)Cn1cc(C(O)(c2ccc3c(cnn3-c3ccc(F)cc3)c2)C(F)(F)F)c2ccccc21 (stereo partly drawn) [(S)-1-(3-{2,2,2-Trifluoro-1-[1-(4-fluorophenyl)-1H-indazol-5-yl]-1-hydroxyethyl}indol-1-yl)propan-2-ol] | ≤ 1 | > 50 |
| 91 to 93 | C=CCn1cc(C(O)(c2ccc3c(cnn3-c3ccc(F)cc3)c2)C(F)(F)F)c2ccn(C)c(=O)c21 (stereo not drawn) [Example 75, 1-Allyl-6-methyl-3-{2,2,2-trifluoro-1-[1-(4-fluorophenyl)-1H-indazol-5-yl]-1-hydroxyethyl}-1,6-dihydropyrrolo[2,3-c]pyridin-7-one] |  |  |
|  | CNC(=O)CCn1cc(C(O)(c2ccc3c(cnn3-c3ccc(F)cc3)c2)C(F)(F)F)c2ccccc21 (stereo not drawn) [N-Methyl-3-(3-{2,2,2-trifluoro-1-[1-(4-fluorophenyl)-1H-indazol-5-yl]-1-hydroxyethyl}indol-1-yl)propionamide] | ≤ 1 | > 50 |

From patent US8658637B2, “Glucocorticoid mimetics, methods of making them, pharmaceutical compositions and uses thereof” (Boehringer Ingelheim International GmbH, priority 2006, dated 2014)
